Reference: US10391070B2, “Compositions and methods for treating neurological diseases or injury” (MUSC FOUNDATION FOR RESEARCH DEVELOPMENT, priority 2012, dated 2019)

How the values were obtained:
zebrafish larvae = assay: Zebrafish larval toxicity (NOEC, lethal dose); format: in vivo; conditions: 7 dpf zebrafish larvae
Experimental: Using a 96-well plate, one zebrafish larva (7 dpf) was placed in each well in 100 μL of tank water (TW). 100 μL of each compound (0.5-15 μM) was then added to each well for 12 animals (one row) to give a final volume of 200 […]. A control row was tested for DMSO toxicity effects. […] Each drug was assessed for the no observed effect concentration (NOEC), the highest non-lethal dose resulting in no apparent toxic effects.
Zebrafish (AB strain) were obtained from the Zebrafish International Resource Center (supported by P40 RR012546 from NIH-NCRR). Zebrafish were maintained and crossed according to standard methods (Westerfield, 2000). Fertilized eggs were collected and placed in E3 embryo medium and positioned in an incubator set at 28.5° C. with a 14/10 h light/dark cycle (Kimmel et al., 1995). To determine the lethal dose of each compound, 96-well plates containing one zebrafish (7 days post-fertilization, dpf) per well in 100 μL of tank water were used. 100 μL of each compound (0.5 to 15 μM) was added to each well for 12 animals (one row) for a final volume of 200 μL. One row of larvae was used as DMSO only controls. […] All zebrafish studies were approved by the Medical University of South Carolina Institutional Animal Care and Use Committee (AR #2850) and performed in accordance with the guidelines.
Using a 96-well plate, one zebrafish larva (7 dpf) was placed in each well in 100 μL of tank water. 100 μL of each compound was then added to each well for 12 animals (one row) for a final volume of 200 μL. One row of zebrafish larvae was used as DMSO only controls. […] Toxicity was also measured in the mouse model by the NIH Anticonvulsant Screening Program at the National Institute of Neurological Disorders and Stroke (Stables and Kupferberg, 1997), according to the established NIH experimental procedures. Compounds were delivered into mice by intraperitoneal (i.p.) injection at a dose of 100 mg/kg in sterile 5% DMSO, 95% Neobee (Josey et al., 2013). Acute toxicity was assessed by monitoring the animals for impaired neuromuscular function by placing treated mice on a rod rotating at 6 rpm. […]

HT-22 neuronal cells = assay: Respirometry (OCR, ECAR; Seahorse XF-96); format: cell-based, mouse; set-up: ECAR (glycolysis), difference from control: unit not given here; conditions: HT-22 cells, mean±SEM
Experimental: Oxygen consumption rates (OCR) and extracellular acidification rates (ECAR) of HT-22 neuronal cells were performed on the XF-96 Extracellular Flux Analyzer (Seahorse Bioscience) using standard methods (Beeson et al., 2010). In brief, cells were cultured in 96 well Seahorse plates in DMEM high glucose media (Invitrogen) supplemented with 10% FBS, 10 mM HEPES, and 1% antibiotic-antimycotic (Invitrogen). The media was replaced with DMEM media supplemented with 25 mM glucose, 10 mM sodium pyruvate, 31 mM NaCl, and 2 mM glutamine at pH 7.4. Each of the four drug ports on the Seahorse sensor cartridge were filled with test compound (media only, 5 μM NQN-1, 10 μM VK3 or 12.5 μM MB), 10 μM oligomycin, 1 μM FCCP, and 5 μM rotenone, which were injected into each well at 20, 80, 110, and 135 min, respectively. The pmol/min OCR rate for each well (9-52 wells/group) was measured. Wells were excluded from the analysis if their OCR values surpassed the Tukey Outlier Rule. In order to standardize the OCR rates across wells, the average OCR value at 17 min (last time point prior to injection of the test compounds) for each experimental group was calculated, and set to 100. All OCR values are given as a percentage of this pre-treatment value. […]

c-fos = c-fos gene expression in PTZ-treated zebrafish larvae; format: in vivo, zebrafish (Danio rerio); conditions: 7 dpf zebrafish, pre-treatment
Experimental: Ten 7 dpf larvae were placed in 500 μL tank water in wells of a 48-well cell-culture plate and appropriate concentrations of drugs were added as in the behavior study (Table 9). After a 1 h pre-incubation period, PTZ was added to a final concentration of 15 mM in appropriate wells and larvae were incubated for a further 45 min. Fish were quickly euthanized by incubating the plate in an ice-water bath for 15 min. Fish were removed from each well and all liquid removed before freezing at −80° C. RNA was extracted using Trizol (Invitrogen) followed by the RNeasy Mini kit (Qiagen). Frozen embryos were homogenized in 800 μL Trizol using in-tube pestles and a motorized homogenizer. Following a 5-min incubation at room temperature, 200 μL chloroform was added and the samples were centrifuged at 12,000 g for 10 min. The aqueous phase was transferred to a new tube and 250 μL 100% ethanol was added and the samples mixed. This mixture was then transferred to the Qiagen minicolumn assembly and the protocol followed as described with the kit. Samples were eluted in 30 μL RNase free water and concentration was determined using the Nanodrop instrument (Thermo Fisher). cDNA was prepared using the RETROscript kit (Ambion) with 500 ng total RNA. cDNA was then diluted 1:1 with sterile dH2O and 2.5 μL of this cDNA was used in the QPCR reaction with SsoAdvanced SYBR Green Supermix (BioRad) and c-fos primers designed to span an intron-exon junction (c-fos F: […], SEQ ID NO:9; c-fos R: […], SEQ ID NO:10) ([…] each) in the BioRad CFX96 RealTime instrument. L13a and EF1a gene expression were used for normalization (Rahn et al., 2013). The following cycle conditions were used: 95° C./3 min, 40 cycles of 95° C./15 s, 62° C./30 s, followed by 95° C. 30 s and a dissociation curve. Samples were run in duplicate. The 2^−ΔΔCt method was used to quantify gene expression, whereby all gene Ct values were first normalized to Ct values of the geometric mean of the Ct of L13a and EF1a (Livak and Schmittgen, 2001). Treated samples were then normalized to the tank water control and converted to fold change.

HDAC = HDAC isozymes inhibited; cited from earlier work
PTZ-induced seizures = assay: PTZ-induced seizure (swim activity) model in zebrafish larvae; format: in vivo, zebrafish (Danio rerio)
Experimental: The DanioVision locomotion tracking instrument with Ethovision XT software (Noldus) was used to measure the severity of the seizures by quantifying the locomotor activity of each fish.
In a 48-well plate, one 6-7 dpf larva was added per well. Compounds were given at a sub-lethal dose and treated for 1 h. Three control rows were included—tank water (TW) only, PTZ only and PTZ+VPA (2-4 mM final concentration of VPA). […] After 5 min, the plate was transferred to the Daniovision apparatus and the chamber light was turned on. After 2 min, Ethovision was used to determine the distance traveled (a marker of seizure of activity) by each fish for 15 min (25 frames per second). Velocity, duration of movement, and frequency of movement were also determined from the same recording. After measurement, fish were monitored visually for survival. The distance moved over the recording period with Ethovision XT software (Noldus) was averaged over 8 wells per treatment unless the fish was not detected.
In a 48-well plate, one 7 dpf zebrafish was added per well. Larvae were dosed with each compound at a sub-lethal dose 1 h prior to PTZ treatment. Three control rows were included with each experiment—tank water only control, PTZ only and PTZ+VPA (4 mM final concentration of VPA). […] After 5 min, the plate was transferred to the Daniovision instrument (Noldus Information Technology) and the chamber light was turned on. After 2 min, MediaRecorder (Noldus) was used to record video for 15 min. A small number of videos were acquired 25 frames per second, but the majority of the data was acquired at the frame rate of 60 frames per second. After recording, fish were monitored visually for survival. Ethovision XT software (Noldus) was used to track the fish movement from the video images in order to calculate the total distance traveled over 15 min. […] All experimental comparisons were made between animals from the same clutch.

HT22 cells [1] = assay: Glutathione determination in glutamate-treated cells; format: cell-based, mouse; conditions: HT22, 10 mM glutamate 8 hrs, 25 μM
Experimental: The content of total glutathione (reduced and oxidized) in the supernatant of cell homogenate was measured using the glutathione assay kit (Cayman Chemical) in microtiter plate assay, which utilizes an enzymatic recycling method, using glutathione reductase, for the quantification of glutathione. The sulfhydryl group of glutathione reacted with 5,5′-dithiobis-2-nitrobenzoic acid (DTNB) and produced a yellow-colored 5-thio-2-nitrobenzoic acid (TNB), which was measured at 405 nm.

HT22 cells [2] = assay: t-BuOOH toxicity protection (MTS cell viability); format: cell-based, mouse; conditions: HT22, 50 μM t-BuOOH
Experimental: Cell viability was assessed by the ability of the viable cells to metabolize 3-(4,5-dimethylthiazol-2-yl)-5-(3-carboxymethoxyphenyl)-2(4-sulfophenyl)2-H-tetrazolium, inner salt (MTS), as described previously (Cory et al., 1991). The metabolism of tetrazolium salts is often used to measure cellular proliferation, but in the system used here, it has been previously shown to correlate well with cell viability as determined by trypan blue exclusion and colony-forming assays (Davis and Maher, 1994). Briefly, HT-22 cells were seeded onto 96-well plates at 5.0×10^3 cells per well in 75 μL of medium and maintained at 37° C. in 5% CO2 overnight prior to the initiation of experimental treatments. For glutamate toxicity testing, cells were subsequently treated with 25 μL of medium containing glutamate (monosodium glutamate, Sigma, 1 M stock concentration in media, to achieve a final concentration of 10 mM) plus inhibitors (stock in DMSO) and maintained at 37° C. in 5% CO2. For t-BuOOH toxicity testing, cells were subsequently treated with 25 μL of medium containing t-BuOOH (Sigma, 10 mM stock concentration, to achieve a final concentration of 50 μM) plus inhibitors (stock in DMSO) and maintained at 37° C. in 5% CO2 for 3 hours, after which the media was removed, cells washed gently with HBSS, the media replaced with standard culture media, and the cells returned to incubation at 37° C. in 5% CO2. For both glutamate and t-BuOOH treatments, 10 μl of MTS solution was added to each well 24 hrs after initial treatment, and the cells were maintained in growth medium for 2 h at 37° C. Absorbance at 490 nm was subsequently measured by a SpectraMax 190 plate reader (Molecular Devices). The growth medium without cells in the presence of MTS solution was used as solution background and untreated cells were considered the controls. Cell viability was calculated as a percentage compared with untreated controls. EC50 determinations were based on 12-point titrations using GraphPad Prism, and each experiment was repeated at least four times. Morphology of HT22 cells following treatments was determined by phase-contrast microscopy. Digital images of cells grown on cell culture plates were captured at 10× magnification.
In light of the findings that the protection against glutamate induced cell death provided by VK2, 2q, and 2j, are at least partially mediated by the attenuation of the increased production of endogenous ROS, the inventors also examined the effects of these compounds on tert-butylhydroperoxide (t-BuOOH) induced cell death. t-BuOOH is a short chain analog of the lipid hydroperoxides formed from peroxidation reactions during oxidative stress that is cytotoxic to cells (Lemasters and Nieminen, 1997). […] It is well documented that cells undergo rapid and extensive fragmentation in the early stages of cell death (Bossy-Wetzel et al., 2003; Frank et al., 2001; Breckenridge et al., 2008; Jagasia et al., 2005; Lee et al., 2004). Recent studies have shown that mitochondrial fragmentation is regulated by the translocation of dynamin-related protein 1 (Drp1) from the cytosol to the mitochondria, where it assembles to form spirals at division sites (Smirnova et al., 2001). Although the exact molecular mechanism is still not well studied, the activity of Drp1 is regulated by the phosphorylation and dephosphorylation of specific serine residues by protein kinases and phosphatases such as calcineurin and the PGAM5 (Wang et al., 2012; Chang et al., 2007). […]

[3] = Antioxidant activity assay (DPPH free radical scavenging); conditions: 20 μM, 100 μM DPPH in methanol
Experimental: Antioxidant activity of various reagents was assayed as previously described by monitoring the disappearance of the optical absorbance of the stable-free radical DPPH on reaction with test compounds (Blois, 1958). The rate of the reaction represents the antioxidant potency of test agents. The known free radical scavenger Trolox and ascorbic acid were used as positive controls. Briefly, 10 μL of test reagents at final concentrations of 20 μM were added to 200 μL of 100 μM DPPH in methanol. Optical absorbance of DPPH at 517 nm was immediately monitored for 10 min.

Row | Compound | Lethal dose (zebrafish larvae; up to 5 h treatment) [mM] | Highest concentration tested for anti-seizure activity (zebrafish larvae; highest sub-lethal dose) [mM] | basal cellular respiration, difference in OCR from control (HT-22 neuronal cells; 1 h treatment, OCR as percentage of pre-treatment value) | basal mitochondrial respiration, difference from control (HT-22 neuronal cells; basal minus non-mitochondrial (rotenone)) | ATP-linked respiration, difference from control (HT-22 neuronal cells; basal minus oligomycin) | ECAR (glycolysis), difference from control (HT-22 neuronal cells) | PTZ-induced increase in c-fos expression (c-fos) | HDAC Class of Inhibition (HDAC) | concentration required for effective reduction of seizures (PTZ-induced seizures; PTZ-treated zebrafish larvae) [µM] | Seizure suppression (PTZ-induced seizures; PTZ-treated zebrafish larvae, pretreated 1 hr at NOEC) | PTZ-induced swim activity (distance traveled) (PTZ-induced seizures; zebrafish larvae, 1 h pretreatment at sub-lethal concentration (VPA 4 mM, NQN-1 3 μM), 15 mM PTZ) | depletion of total cellular GSH (HT22 cells [1]) | protection from t-BuOOH induced cell death (HT22 cells [2]) | free radical scavenging capacity (DPPH absorbance) [3]
1 | O=C(NC1=CC(=O)c2ccccc2C1=O)c1ccccc1 [2-benzoylamino-1,4-naphthoquinone] | 0.005 | 0.003 | 24.35±1.03 | 15.26±2.29 | 16.83±1.83 | 1.75±1.12 | able to blunt this increase in expression | 6 | 3 | Yes | significantly suppressed PTZ-induced swim activity | – | – | –
2 | Cc1c(C)c2c(c(C)c1O)CCC(C)(C(=O)O)O2 (centres unmarked) [Trolox] | – | – | – | – | – | – | – | – | – | – | – | did not prevent GSH depletion | less effective | rapidly scavenged DPPH
